Measurements reported in patent US4550186A, “Binuclear copper (II) carboxylates formed from amine-carboxyboranes” (Duke University, priority 1983, dated 1985).

Molecular target: T1, HMG CoA Reductase (Mus musculus, UniProt Q01237)
T1 construct: 10% homogenates of CF1 male mouse liver; from tissue; host or cells: CF1 male mouse liver, post-mitochondrial supernatant
T1 sequence (Q01237 1-887): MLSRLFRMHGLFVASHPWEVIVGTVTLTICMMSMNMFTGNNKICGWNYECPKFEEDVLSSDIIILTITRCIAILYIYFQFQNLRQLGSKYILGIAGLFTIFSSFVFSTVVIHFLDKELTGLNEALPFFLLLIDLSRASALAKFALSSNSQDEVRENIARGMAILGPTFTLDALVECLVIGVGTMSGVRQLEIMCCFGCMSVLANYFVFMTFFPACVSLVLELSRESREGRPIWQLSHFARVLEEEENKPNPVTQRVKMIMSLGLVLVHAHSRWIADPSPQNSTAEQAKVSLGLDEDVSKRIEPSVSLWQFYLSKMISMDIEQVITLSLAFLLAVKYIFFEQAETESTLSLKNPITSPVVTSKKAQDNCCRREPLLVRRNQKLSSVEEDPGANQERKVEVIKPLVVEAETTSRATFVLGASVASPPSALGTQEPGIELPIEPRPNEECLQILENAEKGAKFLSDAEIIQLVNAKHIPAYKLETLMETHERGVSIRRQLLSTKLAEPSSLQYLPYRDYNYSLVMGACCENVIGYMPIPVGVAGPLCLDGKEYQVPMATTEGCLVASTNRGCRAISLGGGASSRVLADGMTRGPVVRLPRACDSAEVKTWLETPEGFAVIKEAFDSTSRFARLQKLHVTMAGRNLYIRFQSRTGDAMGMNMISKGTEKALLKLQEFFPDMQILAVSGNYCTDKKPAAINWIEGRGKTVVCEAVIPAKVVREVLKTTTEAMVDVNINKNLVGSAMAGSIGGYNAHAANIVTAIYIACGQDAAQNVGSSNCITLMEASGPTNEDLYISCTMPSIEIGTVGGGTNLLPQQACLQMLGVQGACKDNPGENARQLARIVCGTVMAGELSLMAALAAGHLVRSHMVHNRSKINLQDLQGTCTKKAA
Assay: In vitro liver enzyme study: HMG CoA reductase
Assay type: biochemical
Conditions: in vitro CF1 liver
Protocol: In vitro enzymatic studies were determined using 10% homogenates of CF1 male mouse liver with 50-200 μM of test drugs. In vivo enzymatic studies were determined using 10% homogenates of liver from CF1 male mice obtained after administering the agents for 16 days at a dose ranging from 2.5-20 mg/kg/day intraperitoneally. The liver homogenates for both in vitro and in vivo studies were prepared in 0.25M sucrose and 0.001M (ethylenedinitrilo)tetraacetic acid. Acetyl coenzyme A synthetase and adenosine triphosphate dependent citrate lyase activities were determined spectrophotometrically at 540 nm as the hydroxylamate of acetyl coenzyme A formed after 30 min at 37° C. Mitochondrial citrate exchange was determined by the procedure of Robinson et al [Eur. J. Biochem., 216, 63 (1970)] using ^14 C-sodium bicarbonate (41 mCi/mmol) incorporated into mitochondrial ^14 C-citrate after isolating rat mitochondria (9000 g×10 min) from the homogenates. The exchanges of the ^14 C-citrate were determined after incubating the mitochondrial fraction which was loaded with labeled citrate and test drugs for 10 min. Then the radioactivity was measured in the mitochondrial and supernantant fractions in scintillation fluid and expressed as a percentage. Cholesterol side chain oxidation was determined by the method of Kritchevsky and Tepper [Artherosclerosis, 18, 93 (1973)] using (26-^14 C) cholesterol (50 mCi/mmol) and mitochondria isolated from rat liver homogenates. […] Fatty acid synthetase activity was determined by the method of Brady et al [J. Biol. Chem., 235, 3093 (1960)] using [2-^14 C] malonyl-coenzyme A (37.5 mCi/mmol) which was incorporated into newly synthesized fatty acids that were extracted with ether and counted. Acyl transferase activity was determined with glycerol-3phosphate [L-2-^3 H(N)] […] HCl and counted. Phosphatidate phosphohydrolase activity was measured as the inorganic phosphate released after 30 min from phosphatidic acid by the method of Mavis et al [J. Lipid Res., 19, 467 (1978)]. […]

## {Cu[(CH3)3 N.BH2 CO2 ]2.(CH3)3 N.BH2 COOH} [Compound I]
50 μM
  HMG CoA Reductase: 102 ± 8 Percent Control
100 μM
  HMG CoA Reductase: 101 ± 9 Percent Control
200 μM
  HMG CoA Reductase: 105 ± 8 Percent Control
